# Measured values as given in patent US12472282B2, “Bioengineered wharton's jelly derived extracellular matrix” (University of Rochester, priority 2018, dated 2025).
# Tested on: primary acute myeloid leukemia (AML) cells
# Assay: Response to chemotherapy following treatment with doxorubicin, DWJM culture vs suspension culture
# Type: cell-based, human
# Procedure: AML patient samples collected by leukapheresis were cultured in DWJM disks for one week. Non-adherent cells were first aspirated and adherent cells were separately isolated and assessed for viability, apoptosis, and colony forming unit (CFU). RNA sequencing was performed at the end of culture. Response to chemotherapy following treatment with doxorubicin was also assessed. For all studies, DWJM-adherent and non-adherent cells were compared to suspension culture controls. Metabolic pathway analyses were conducted using enzyme-linked immunosorbent assay (ELISA). One-tailed t-test was used for comparison between the groups
structure (smiles),measurement,setting,value
COc1cccc2c1C(=O)c1c(O)c3c(c(O)c1C2=O)C[C@@](O)(C(=O)CO)C[C@@H]3O[C@H]1C[C@H](N)[C@H](O)[C@H](C)O1 [doxorubicin],CFU activity after doxorubicin,"co-culture with DWJM, P=0.047","3.3 /300,000 cells"
same,CFU activity after doxorubicin,suspension culture cells,"0.3 /300,000 cells"
